These results are taken from a melting point compilation (Tetko et al.; mined from patent text by program, amines drawn as free bases though some values may be those of a salt).

Each structure is given as a SMILES string. Where only a bound is given, the exact number is not on record here.

A word on the melting point: it is the temperature of the solid-liquid transition. `Cc1cccc(-c2c(C3CCN(C)CC3)[nH]c(=O)c3ccccc23)c1` came in with a melting point of 214 to 216 °C.
The figure for `Cc1cc(CCCOc2c(C)cc(-c3noc(C(Cl)(Cl)Cl)n3)cc2C)on1` is 77 to 77.5 °C; for `Fc1cc(Nc2ccc(Oc3ccccc3)cc2)ccn1` it is 149 °C; for `COc1cc(C(=O)Nc2cc(F)ccc2C(=O)O)cc(OC)c1OC` it is 232 to 233 °C.
The figure for `CN1CCC(c2n[nH]c3ccc(NC(=O)c4ccc(F)cc4)cc23)CC1` is 151 to 153 °C.
The figure for `COC(=O)C1C(=O)NC(=O)C12C(=O)N1c3ccccc3Sc3cccc2c31` (centres undefined) is 221 to 224 °C; for `CS(=O)(=O)c1ccc(OCCCCl)cc1` it is 84 to 86 °C.
On to `CCc1ccc(S(=O)(=O)c2ccc(C)nc2Nc2ccc(OC)cc2Cl)cc1`, for which the melting point fell in the range of 110 to 112 °C.
The figure for `CN(O)C(=O)Nc1ccc([N+](=O)[O-])c(C(F)(F)F)c1` is 129 to 130 °C.
The figure for `CCn1nc(OCCCc2ccc(OCCOC)cc2OCc2ccc(Cl)cc2Cl)cc1CCC(=O)O` is 114 to 116 °C.
In the case of `COc1nc(CC(=O)O)c([N+](=O)[O-])cc1C` it was 135 to 137 °C; in that of `CCc1cc(OCc2ccc3oc(-c4ccccc4C(=O)OC)nc3c2)c2c(n1)CCCC2`, 131 to 132 °C; in that of `COc1ccc(Cl)c2c1[nH]c(=O)n1nc(CO)cc21`, 221 to 222 °C.
`Cc1coc(NC(=O)C2=C(O)c3c(c4ccccc4n3C)S(=O)(=O)N2C)n1` came in with a melting point of 128 °C.
The figure for `O=C(O)c1cc(Cl)cc(Cl)c1NS(=O)(=O)c1ccc(Cl)cc1` is 273 to 276 °C.
The figure for `CCOc1ccc2nc(COc3ccc(CC4SC(=O)NC4=O)cc3)n(C)c2n1` (centres undefined) is 245 to 246 °C; for `Nc1ncc2sc(=O)n(C3OC(CO)C(O)C3O)c2n1` (centres undefined) it is 220 °C.
The figure for `O=C(CCCN1CCN(c2ncc3ccccc3n2)CC1)c1ccc(F)cc1` is 129 to 131 °C; for `Cc1cc(Oc2nc(-c3ccccc3)ns2)c(C)cc1N=CN(C)C` it is 100 to 105 °C; for `CC(C)(C)OC(=O)N1[C@@H](C(=O)O)CC[C@H]1c1ccccc1` (racemic) it is 113 to 117 °C.
With `CC(C)(C)OC(=O)Nc1ccc(C#Cc2ccccc2F)cc1NC(=O)CC(=O)c1cccc(C#N)c1`, the melting point was in the range of 216 to 217 °C.
The figure for `C[C@H](O)C(=O)Nc1ccccn1` is 102 to 104 °C; for `O=C(O)/C=C/c1ccc(-c2nc3c(=O)n(CC4CCC4)c(=O)n(CC4CCC4)c3[nH]2)cc1` it is > 300 °C; for `COC(=O)c1c(S(N)(=O)=O)c(C)nn1C` it is 174 to 176 °C.
In the case of `CCCS(=O)(=O)c1cccnc1S(N)(=O)=O` it was 153 to 157 °C; in that of `CCCOc1ccccc1-c1nc2nc(NC)nnc2c(=O)[nH]1`, 261 to 263 °C; in that of `CCCCC(=O)N(Cc1ccc(-c2ccccc2-c2nc(=O)o[nH]2)cc1)c1sccc1C(=O)OC`, 154 to 155 °C.
In the case of `Clc1ccc2c(c1)C(c1ccccc1)=NCC1CNCCN21` (centres undefined) it was 132 to 135 °C; in that of `O=C(O)c1ccc(OCc2ccccc2)c(OCc2ccccc2)c1`, 184 to 185 °C.
Regarding `CN(C)CCCCCNc1nc2cc(Cl)c(Cl)cc2nc1-c1ccccn1`, the melting point was 100 to 102 °C.
The figure for `CCOC(=O)Cc1ccc(-c2nc(COc3ccc(COc4nn(-c5ccccc5)cc4/C=C\c4cnn(CC)c4)cc3OC)c(C)o2)cc1` is 140 to 141 °C.
In the case of `COc1cccc(S(=O)(=O)c2cccc(F)c2C#N)c1` it was 113 to 117 °C; in that of `COc1cc2c3c(c(=O)n(C)c2cc1OC)CNCC3`, 178 to 179 °C; in that of `O=C(Cc1ccccc1)NC(SC(=O)c1ccccc1)C(=O)O` (centres undefined), 133 to 138 °C.
The compound `Cc1cc(=O)c(C(=O)Nc2nnc(C)s2)c(C)o1` came in with a melting point of 203 to 204 °C.
In the case of `CCOC(=O)CC(=O)Nc1ccc(NC(=O)CC(=O)OCC)c([N+](=O)[O-])c1` it was 96 to 97 °C.
In the case of `COC(=O)c1ccc(-c2ccc(C#N)cc2)nc1` it was 142 to 144 °C.
The figure for `CCCCc1nc(C(C)=O)c(C#N)[nH]1` is 77 to 78 °C; for `CNC(=O)[C@@H]1C=CCN1S(=O)(=O)c1ccc(Cl)c(COc2cccc3c(-n4ccnc4)cc(C)nc23)c1Cl` it is 132 °C; for `C=CCC(NC(=O)C(C)(C)C)C(=O)O` (centres undefined) it is 87 to 88 °C.
In turn, `Nc1ccc2c(c1)OCCNC2=O` gave a melting point of 151 to 152 °C.
The figure for `O=C(O)CCCc1ccc(NS(=O)(=O)c2ccccc2)cc1` is 128 to 130 °C; for `COC(=O)c1cnn(C)c1C(=O)Nc1ccn2nc(-c3cccnc3)nc2c1` it is 228 to 231 °C; for `Cc1cc(NC(=O)NC(=O)c2ccccc2Cl)nc(C)c1-c1ccccc1` it is 176 to 189 °C.
In the case of `COC(=O)c1cc([N+](=O)[O-])ccc1Nc1ccc(CCc2ccc(Cl)c(Cl)c2)cc1` it was 107 to 108 °C.
The compound `CC(CCCCc1ccc(F)cc1)NCc1c(CO)ccc(O)c1CO` (centres undefined) registered a melting point of 72 to 77 °C.
Compound `CC(C)(C)c1cc(-c2nc(C(Cl)(Cl)Cl)no2)cc(C(C)(C)C)c1O` yielded a melting point of 100 to 102 °C.
The figure for `CC(C)c1ccccc1N1/C(=N\N=C/c2ccc(-c3ncn(-c4ccc(OC(F)(F)F)cc4)n3)cc2)SCC1(O)C(F)(F)F` (centres undefined) is 185 to 187 °C; for `COC(=O)c1ccc(NC(C)=O)cc1O` it is 148 to 151 °C; for `O=C(O)CCCc1cc2cc(C(F)(F)F)ccc2n1S(=O)(=O)c1ccc2c(c1)CCO2` it is 144 to 149 °C.
`CCOC(=O)c1cn2c3c(cc(C)cc3c1=O)C1CCCCC12` (centres undefined): the melting point was 107 to 109 °C.
The figure for `CN(C)C(=O)Nc1ccc(Oc2ccc3sncc3c2)cc1` is 156 °C; for `CCOC(=O)CCN(C)Cc1ccc(NC(=O)C2=Cc3cc(-c4ccc(N5CCOCC5)cc4)ccc3S(=O)(=O)CC2)cc1` it is 209 to 211 °C.
In the case of `CC(=O)Nc1c(C(=O)c2ccccc2)[nH]c2ccc(Cl)cc12` it was 200 to 201 °C.
In turn, `CSc1nc(=O)[nH]c(C)c1Br` yielded a melting point of 244 °C.
The figure for `O=c1[nH]c2ccc(Cl)cc2c2nc(-c3ccc(O)cc3)nn12` is > 350 °C.
The figure for `O=c1cc(-c2ccccc2)oc2ccc(OCCCCCN3CCC(O)CC3)cc12` is 128 to 129 °C; for `CCS(=O)(=O)OC(c1cccc(C(O)(C(F)(F)F)C(F)(F)F)c1)(C(F)(F)F)C(F)(F)F` it is 64 °C.
The figure for `CN1CCC(C2(C(N)=O)Cc3ccc([N+](=O)[O-])cc3C2=O)CC1` (centres undefined) is 189 to 190 °C; for `ClC(=NNc1c(Cl)cc(Cl)cc1Cl)c1ccc(Cl)cc1` it is 123 to 124 °C; for `NS(=O)(=O)c1cccc(C2CC2)c1` it is 71.5 to 72.9 °C.
`O=C1c2ccccc2C(=O)N1CCNCCCO`: the melting point was in the range of 94 to 95 °C.
Take `O=C(O)C(O)C1CCN(Cc2ccccc2)C1` (centres undefined): the melting point fell in the range of 174 to 176 °C.
`CCCc1nc2c(N)nc3cc(C)ccc3c2s1` returned a melting point of 186 to 187 °C.
